Test system in one data set: not given
Test: not given
Particulars: 600 mg twice a day, clinical; cited from earlier work.
Chain of B-Raf-V600E kinase (P15056 whole entry V600E): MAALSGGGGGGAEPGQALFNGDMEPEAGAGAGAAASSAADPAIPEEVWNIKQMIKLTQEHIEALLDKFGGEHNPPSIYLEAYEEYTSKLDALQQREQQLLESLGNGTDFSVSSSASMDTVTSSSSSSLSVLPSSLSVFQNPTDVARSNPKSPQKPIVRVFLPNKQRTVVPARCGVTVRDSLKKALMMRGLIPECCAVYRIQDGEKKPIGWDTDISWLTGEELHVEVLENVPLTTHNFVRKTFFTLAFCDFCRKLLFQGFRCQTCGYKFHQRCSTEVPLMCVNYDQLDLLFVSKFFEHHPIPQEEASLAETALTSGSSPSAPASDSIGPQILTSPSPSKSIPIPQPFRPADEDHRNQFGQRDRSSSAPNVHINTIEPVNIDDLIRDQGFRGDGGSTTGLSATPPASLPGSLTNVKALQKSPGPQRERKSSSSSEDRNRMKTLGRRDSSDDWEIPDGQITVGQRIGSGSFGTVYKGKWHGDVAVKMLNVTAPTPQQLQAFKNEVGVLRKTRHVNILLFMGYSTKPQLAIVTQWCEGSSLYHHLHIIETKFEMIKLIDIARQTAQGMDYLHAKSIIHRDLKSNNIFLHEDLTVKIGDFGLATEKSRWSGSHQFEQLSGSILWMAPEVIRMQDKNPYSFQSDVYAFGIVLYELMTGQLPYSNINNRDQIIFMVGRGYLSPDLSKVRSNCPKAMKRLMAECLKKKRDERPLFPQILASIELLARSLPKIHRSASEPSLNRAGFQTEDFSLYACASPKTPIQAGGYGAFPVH
In the case of `CNC(=O)c1cc(Oc2ccc(NC(=O)Nc3ccc(Cl)c(C(F)(F)F)c3)cc2)ccn1` [sorafenib, Sorafenib], the “skin toxicity on administration” value was “grade 3 skin toxicity”.

A further data set deals with A375 melanoma cells.
Test: not given
The conditions noted are these: read-out: proliferation of A375 melanoma cells IC50; cited from earlier work.
Regarding `CCCS(=O)(=O)Nc1ccc(F)c(C(=O)c2c[nH]c3ncc(Cl)cc23)c1F` [PLX4720], the IC50 is 0.5 µM.

Another data set deals with B-Raf-V600E kinase (Homo sapiens, UniProt P15056, V600E). In words: B-Raf kinase activity (kinase cascade assay). The format is biochemical. Particulars: MEK1/Erk2/MBP, [γ-32P] ATP, read-out: B-Raf-V600E kinase inhibitory activity (IC50). The protocol:
Measurement of B-Raf Kinase Activity (Kinase Cascade Assay)
(1) Activation of MAP Kinase 2/Erk2 by B-Raf
Magnesium/ATP solution (500 μM ATP, 75 mM magnesium chloride) was prepared (10 μL). Diluted B-Raf-V600E enzyme (2.5 μL) was added at a final concentration of 1 ng/mL. and inactivated MEK1 (1.6 μL) was added at a final concentration of 0.4 μg/mL. Then, inactivated MAP Kinase 2/Erk2 (4 μL) was added at a final concentration of 1.0 μg/mL. The test compound was prepared at a concentration of 10 mM in dimethylsulfoxide (DMSO) and diluted to various concentrations (DMSO 2.6%). The final volume was adjusted to 38 μL by adding Assay Dilution Butter I (ADBI) and the mixture was allowed to react at 30° C. for 30 minutes. 5 μL of the mixture solution was taken to perform the next process.
(2) Phosphorylation of Myelin Basic Protein (MBP)
The mixture solution (5 μL) was treated with assay dilution buffer (10 μL) and then with myelin basic protein (MBP, 2 mg/mL, 10 μL). [γ-32P] ATP (100 μCi/container) diluted to 1/10 was added in 10 μL aliquots. After reaction at 30° C. for […] and then placing P81 paper in a scintillation vial, spotting was performed slowly using 25 μL of the reaction mixture. After washing 4 times with 0.75% phosphoric acid for 10 minutes and washing once with acetone for 5 minutes, 5 mL of scintillation cocktail was added to the scintillation vial. Signals were recorded using a scintillation counter.
Consider `CNc1cc(-n2cc(-c3ccc(OC)cc3)c3ccc(-c4cccc(NC(=O)Nc5ccccc5OC)c4)cc32)ncn1` [Example 39, 1-(2-methoxyphenyl)-3-(3-(3-(4-methoxyphenyl)-1-(6-(methylamino)pyrimidin-4-yl)-1H-indol-6-yl)phenyl)urea], for which the IC50 was less than 10 µM.

On to `CNc1cc(-n2cc(-c3cccc(N)c3)c3ccc(-c4ccc(OC)cc4)cc32)ncn1` [Example 27, 6-(3-(3-aminophenyl)-6-(4-methoxyphenyl)-1H-indol-1-yl)-N-methylpyrimidin-4-amine], for which the IC50 was less than 10 µM.

Regarding `CC(=O)Nc1cccc(-c2ccc3c(-c4ccc(OCCN(C)C)cc4)cn(-c4ccncc4)c3c2)c1` [Example 25, N-(3-(3-(4-(2-(dimethylamino)ethoxy)phenyl)-1-(pyridin-4-yl)-1H-indol-6-yl)phenyl)acetamide], the IC50 is less than 10 µM.

For “4-(6-(4-methoxyphenyl)-1-(6-(methylamino)pyrimidin-4-yl)-1H-indol-3-yl)benzoate [Example 30]”, the IC50 is less than 10 µM.

For a further data set, the system named is A375P cells. In words: Inhibitory activity against proliferation of A375P melanoma cells (MTT assay). The format is cell-based. The conditions noted are these: A375P human melanoma cells with B-Raf-V600E. The protocol:
Measurement of Inhibitory Activity Against Proliferation of A375P Melanoma Cells
A375P cells purchased from ATCC were cultured in DMEM [10% FBS, 1% penicillin/streptomycin] at 37° C. in the presence of 5% CO2. The cultured A375P cells were harvested with 0.05% trypsin-0.02% EDTA and seeded in a 96-well plate at 5×10^3 cells per well.
3-(4,5-Dimethylthiazol-2-yl)-2,5-diphenyltetrazolium bromide (MTT) assay (CellTiter 96 Assay, Promega) was employed to measure cell viability. After adding 15 μL of a dye per well and culturing for 2 hours, the cells were treated with 100 μL of a stop solution and absorbance was measured 24 hours later. The test compound was treated a day after plating. The test compound had been sequentially diluted at 12 concentrations from a 10 mM stock solution using sterilized dimethylsulfoxide (DMSO) and treated with an amount of 0.5 μL. Absorbance at 590 nm was recorded using EnVision2103, and GI50 value was calculated using GraphPad Prism 4.0 software.
The inhibitory activity against proliferation of the A375P cells of some typical compounds according to the present invention is given in Table 2.
Background: Tetrazolium assays rely on reduction of a dye to a coloured formazan, in cell work by metabolically active cells.
As a reminder, the GI50 is the concentration giving 50% growth inhibition. `CNc1cc(-n2cc(-c3ccc(OC)cc3)c3ccc(-c4cccc(NC(=O)Nc5ccccc5OC)c4)cc32)ncn1` [Example 39, 1-(2-methoxyphenyl)-3-(3-(3-(4-methoxyphenyl)-1-(6-(methylamino)pyrimidin-4-yl)-1H-indol-6-yl)phenyl)urea]: the GI50 was less than 10 µM.

The compound `CNc1cc(-n2cc(-c3cccc(N)c3)c3ccc(-c4ccc(OC)cc4)cc32)ncn1` [Example 27, 6-(3-(3-aminophenyl)-6-(4-methoxyphenyl)-1H-indol-1-yl)-N-methylpyrimidin-4-amine] gave a GI50 of less than 10 µM.

As for `CNc1cc(-n2cc(-c3ccc(C(=O)NCCN4CCOCC4)cc3)c3ccc(-c4ccc(OC)cc4)cc32)ncn1` [Example 31, 4-(6-(4-methoxyphenyl)-1-(6-(methylamino)pyrimidin-4-yl)-1H-indol-3-yl)-N-(2-morpholinoethyl)benzamide], the GI50 is less than 10 µM.

In turn, `COc1ccc(-c2cn(-c3ccncc3)c3cc(N4CCNCC4)ccc23)cc1` [Example 14, 3-(4-methoxyphenyl)-6-(piperazin-1-yl)-1-(pyridin-4-yl)-1H-indole] displayed a GI50 of less than 10 µM.

For the compound `COc1ccc(-c2cn(-c3ccnc([S+](C)[O-])n3)c3cc(-c4cccc([N+](=O)[O-])c4)ccc23)cc1` (stereo not drawn) [Example 33, 3-(4-methoxyphenyl)-1-(2-(methylsulfinyl)pyrimidin-4-yl)-6-(3-nitrophenyl)-1H-indole], the GI50 was less than 10 µM.

For the compound `O=[N+]([O-])c1cccc(-c2ccc3c(Br)cn(-c4cc(Cl)ncn4)c3c2)c1` [Example 9, 3-bromo-1-(6-chloropyrimidin-4-yl)-6-(3-nitrophenyl)-1H-indole], the GI50 is less than 10 µM.

On to `CNc1cc(-n2cc(-c3cccc(NC(=O)Nc4ccc(Cl)c(C(F)(F)F)c4)c3)c3ccc(-c4ccc(OC)cc4)cc32)ncn1` [Example 45, 1-(4-chloro-3-(trifluoromethyl)phenyl)-3-(3-(6-(4-methoxyphenyl)-1-(6-(methylamino)pyrimidin-4-yl)-1H-indol-3-yl)phenyl)urea], for which the GI50 is less than 10 µM.

Regarding “4-(6-(4-methoxyphenyl)-1-(6-(methylamino)pyrimidin-4-yl)-1H-indol-3-yl)benzoate [Example 30]”, the GI50 is less than 10 µM.

Consider `COc1ccc(-c2cn(-c3ccncc3)c3cc(N4CCN(C(=O)OC(C)(C)C)CC4)ccc23)cc1` [Example 13, tert-butyl 4-(3-(4-methoxyphenyl)-1-(pyridin-4-yl)-1H-indol-6-yl)piperazine-1-carboxylate], for which the GI50 was less than 10 µM.

As for `CNc1cc(-n2cc(-c3ccc(OC)cc3)c3ccc(-c4cccc(NC(=O)Nc5ccc(Cl)c(C(F)(F)F)c5)c4)cc32)ncn1` [Example 37, 1-(4-chloro-3-(trifluoromethyl)phenyl)-3-(3-(3-(4-methoxyphenyl)-1-(6-(methylamino)pyrimidin-4-yl)-1H-indol-6-yl)phenyl)urea], the GI50 was less than 10 µM.

With `CNc1cc(-n2cc(-c3cccc(NC(C)=O)c3)c3ccc(-c4ccc(OC)cc4)cc32)ncn1` [Example 28, N-(3-(6-(4-methoxyphenyl)-1-(6-(methylamino)pyrimidin-4-yl)-1H-indol-3-yl)phenyl)acetamide], the GI50 was less than 10 µM.

In turn, `CNc1cc(-n2cc(-c3cccc([N+](=O)[O-])c3)c3ccc(-c4ccc(OC)cc4)cc32)ncn1` [Example 26, 6-(6-(4-methoxyphenyl)-3-(3-nitrophenyl)-1H-indol-1-yl)-N-methylpyrimidin-4-amine] gave a GI50 of less than 10 µM.

The values above are taken from patent US8648089B2, “1,3,6-substituted indole derivatives having inhibitory activity for protein kinase” (Korea Institute of Science and Technology, priority 2009, dated 2014).
